# Laboratory results published in PubChem BioAssay AID1687.
# Target: pyruvate kinase (Geobacillus stearothermophilus)
# Assay: pyruvate kinase inhibitors and activators, confirmation, biochemical, Geobacillus stearothermophilus (AID 1687)
# Details: purified enzyme, LDH-coupled NADH absorbance 340 nm
row,SMILES,AC50
1,CN(C)CCn1c2ccccc2n2cc(-c3ccc4c(c3)OCO4)nc12,1.7 µM
2,CN(C)CCCN(C(=O)c1ccc(Cl)s1)c1nc2cc3c(cc2s1)OCO3,8.9 µM
3,Cn1c2ccccc2n2cc(-c3ccc4c(c3)OCO4)nc12,1 µM
4,COc1cccc(CN2c3cccc4cccc(c34)S2(=O)=O)c1,5.5 µM
5,NNC(=O)c1ccc(CN2c3cccc4cccc(c34)S2(=O)=O)cc1,4.9 µM
6,C=CCn1c2ccccc2n2cc(-c3ccc4c(c3)OCO4)nc12,10.5 µM

# Other lines, results leading:
row,AC50,SMILES
1,2 µM,CCn1c2ccccc2n2cc(-c3ccc4c(c3)OCO4)nc12
2,7.6 µM,O=C(CN1c2cccc3cccc(c23)S1(=O)=O)NCc1ccccc1OC(F)F
3,2.2 µM,CCN(CC)CCn1c2ccccc2n2cc(-c3ccc4c(c3)OCO4)nc12
